In ChEMBL document CHEMBL4261496, “Targeting quinolone- and aminocoumarin-resistant bacteria with new gyramide analogs that inhibit DNA gyrase” (Medchemcomm, 2017):
pIC50: −log10 of the molar value. Values after ≈ are worked out from the molar mass of the structure shown. Active and inactive are the calls of the source. No cut-off for these calls is given here.

Legend:
[1] = Ratio of MIC for Escherichia coli BW25113 to MIC for Escherichia coli JW5503; format: functional
Escherichia coli [2] = assay: Antibacterial activity against Escherichia coli JW5503 after 16 to 18 hrs by broth microdilution method; format: functional
Escherichia coli [3] = assay: Antibacterial activity against Escherichia coli HB101 after 16 to 18 hrs by broth microdilution method; format: functional
Escherichia coli [4] = assay: Antibacterial activity against Escherichia coli HB101 after 16 to 18 hrs in presence of PAbetaN by broth microdilution method; format: functional
Escherichia coli [5] = assay: Antibacterial activity against novobiocin-resistant Escherichia coli CC5 harboring GyrB Arg136His mutant after 16 to 18 hrs in presence of PAbetaN by broth microdilution method; format: functional
Escherichia coli [6] = assay: Antibacterial activity against novobiocin-resistant Escherichia coli CC7 harboring GyrB Arg136Ser mutant after 16 to 18 hrs in presence of PAbetaN by broth microdilution method; format: functional
Escherichia coli [7] = assay: Antibacterial activity against novobiocin-resistant Escherichia coli LE316 harboring GyrB Arg136Val mutant after 16 to 18 hrs in presence of PAbetaN by broth microdilution method; format: functional
Escherichia coli [8] = assay: Antibacterial activity against Escherichia coli JW5503 transfected with empty vector in presence of IPTG induction after 16 hrs by broth microdilution method; format: functional; conditions: JW5503, 16 h
Escherichia coli [9] = assay: Antibacterial activity against Escherichia coli JW5503 transfected with empty vector in absence of IPTG induction after 16 hrs by broth microdilution method; format: functional; conditions: JW5503, 16 h
Escherichia coli [10] = assay: Antibacterial activity against Escherichia coli JW5503 overexpressing gyrB in presence of IPTG induction after 16 hrs by broth microdilution method; format: functional; conditions: JW5503, 16 h
Escherichia coli [11] = assay: Antibacterial activity against Escherichia coli JW5503 overexpressing gyrA/gyrB in presence of IPTG induction after 16 hrs by broth microdilution method; format: functional; conditions: JW5503, 16 h
Escherichia coli [12] = assay: Antibacterial activity against Escherichia coli JW5503 overexpressing gyrB at 51 ug/ml in presence of IPTG induction after 16 hrs by broth microdilution method; format: functional, organism-based
Escherichia coli [13] = assay: Antibacterial activity against Escherichia coli BW25113 after 16 to 18 hrs by broth microdilution method; format: functional
Escherichia coli [14] = assay: Antibacterial activity against Escherichia coli MC4100 after 16 to 18 hrs by broth microdilution method; format: functional
Escherichia coli [15] = assay: Antibacterial activity against Escherichia coli BAS849 after 16 to 18 hrs by broth microdilution method; format: functional
Escherichia coli [16] = assay: Antibacterial activity against Escherichia coli UPEC after 16 to 18 hrs by broth microdilution method; format: functional
Acinetobacter baumannii = assay: Antibacterial activity against Acinetobacter baumannii clinical isolate after 16 to 18 hrs by broth microdilution method; format: functional
Edwardsiella tarda = assay: Antibacterial activity against Edwardsiella tarda clinical isolate after 16 to 18 hrs by broth microdilution method; format: functional
Klebsiella aerogenes = assay: Antibacterial activity against Enterobacter aerogenes clinical isolate after 16 to 18 hrs by broth microdilution method; format: functional
Klebsiella pneumoniae = assay: Antibacterial activity against Klebsiella pneumoniae after 16 to 18 hrs by broth microdilution method; format: functional
Morganella morganii = assay: Antibacterial activity against Morganella morganii clinical isolate after 16 to 18 hrs by broth microdilution method; format: functional
Pseudomonas aeruginosa = assay: Antibacterial activity against Pseudomonas aeruginosa after 16 to 18 hrs by broth microdilution method; format: functional
Salmonella typhimurium = assay: Antibacterial activity against Salmonella enterica subsp. enterica serovar Typhimurium after 16 to 18 hrs by broth microdilution method; format: functional
Shigella flexneri = assay: Antibacterial activity against Shigella flexneri after 16 to 18 hrs by broth microdilution method; format: functional
Bacillus subtilis = assay: Antibacterial activity against Bacillus subtilis after 16 to 18 hrs by broth microdilution method; format: functional
Bacillus cereus = assay: Antibacterial activity against Bacillus cereus after 16 to 18 hrs by broth microdilution method; format: functional
Enterococcus faecalis = assay: Antibacterial activity against Enterococcus faecalis after 16 to 18 hrs by broth microdilution method; format: functional
Enterococcus faecium = assay: Antibacterial activity against Enterococcus faecium after 16 to 18 hrs by broth microdilution method; format: functional
Staphylococcus aureus = assay: Antibacterial activity against Staphylococcus aureus subsp. aureus clinical isolate after 16 to 18 hrs by broth microdilution method; format: functional
[17] = tested on: Staphylococcus saprophyticus; assay: Antibacterial activity against Staphylococcus saprophyticus clinical isolate after 16 to 18 hrs by broth microdilution method; format: functional
[18] = tested on: Staphylococcus epidermidis; assay: Antibacterial activity against Staphylococcus epidermidis clinical isolate after 16 to 18 hrs by broth microdilution method; format: functional
Streptococcus agalactiae = assay: Antibacterial activity against Streptococcus agalactiae after 16 to 18 hrs by broth microdilution method; format: functional
Streptococcus pyogenes = assay: Antibacterial activity against Streptococcus pyogenes after 16 to 18 hrs by broth microdilution method; format: functional
Escherichia coli [19] = assay: Antibacterial activity against gyramide-resistant Escherichia coli JW5503 harboring GyrA Pro35Thr mutant after 16 to 18 hrs by broth microdilution method; format: functional
Escherichia coli [20] = assay: Antibacterial activity against gyramide-resistant Escherichia coli JW5503 harboring GyrA Ser97Pro mutant after 16 to 18 hrs by broth microdilution method; format: functional
Escherichia coli [21] = assay: Antibacterial activity against gyramide-resistant Escherichia coli JW5503 harboring GyrA Phe96Leu mutant after 16 to 18 hrs by broth microdilution method; format: functional
Escherichia coli [22] = assay: Antibacterial activity against gyramide-resistant Escherichia coli JW5503 harboring GyrA His45Tyr mutant after 16 to 18 hrs by broth microdilution method; format: functional
Escherichia coli [23] = assay: Antibacterial activity against gyramide-resistant Escherichia coli JW5503 harboring GyrB Thr508Met mutant after 16 to 18 hrs by broth microdilution method; format: functional
Escherichia coli [24] = assay: Antibacterial activity against ciprofloxacin-resistant Escherichia coli JW5503 harboring GyrA Asp87Gly mutant after 16 to 18 hrs by broth microdilution method; format: functional
Escherichia coli [25] = assay: Antibacterial activity against ciprofloxacin-resistant Escherichia coli JW5503 harboring GyrA Asp87Tyr mutant after 16 to 18 hrs by broth microdilution method; format: functional
Escherichia coli [26] = assay: Antibacterial activity against ciprofloxacin-resistant Escherichia coli JW5503 harboring GyrB Ser464Phe mutant after 16 to 18 hrs by broth microdilution method; format: functional
Escherichia coli [27] = assay: Ratio of MIC for gyramide-resistant Escherichia coli JW5503 harboring GyrA Pro35Thr mutant to MIC for Escherichia coli JW5503; format: functional
Escherichia coli [28] = assay: Ratio of MIC for gyramide-resistant Escherichia coli JW5503 harboring GyrA Ser97Pro mutant to MIC for Escherichia coli JW5503; format: functional
Escherichia coli [29] = assay: Ratio of MIC for gyramide-resistant Escherichia coli JW5503 harboring GyrA Phe96Leu mutant to MIC for Escherichia coli JW5503; format: functional
Escherichia coli [30] = assay: Ratio of MIC for gyramide-resistant Escherichia coli JW5503 harboring GyrA His45Tyr mutant to MIC for Escherichia coli JW5503; format: functional
Escherichia coli [31] = assay: Ratio of MIC for gyramide-resistant Escherichia coli JW5503 harboring GyrB Ser464Phe mutant to MIC for Escherichia coli JW5503; format: functional
Escherichia coli [32] = assay: Ratio of MIC for ciprofloxacin-resistant Escherichia coli JW5503 harboring GyrA Asp87Tyr mutant to MIC for Escherichia coli JW5503; format: functional
Escherichia coli [33] = assay: Ratio of MIC for ciprofloxacin-resistant Escherichia coli JW5503 harboring GyrA Ser83Leu mutant to MIC for Escherichia coli JW5503; format: functional
Escherichia coli [34] = assay: Ratio of MIC for ciprofloxacin-resistant Escherichia coli JW5503 harboring GyrA Asp87Gly mutant to MIC for Escherichia coli JW5503; format: functional
Escherichia coli [35] = assay: Ratio of MIC for ciprofloxacin-resistant Escherichia coli JW5503 harboring GyrB Ser464Phe mutant to MIC for Escherichia coli JW5503; format: functional
Escherichia coli [36] = assay: Ratio of MIC for novobiocin-resistant Escherichia coli CC5 harboring GyrB Arg136His mutant to MIC for Escherichia coli HB101; format: functional
Escherichia coli [37] = assay: Ratio of MIC for novobiocin-resistant Escherichia coli LE316 harboring GyrB Arg136Val mutant to MIC for Escherichia coli HB101; format: functional
Escherichia coli [38] = assay: Ratio of MIC for novobiocin-resistant Escherichia coli CC7 harboring GyrB Arg136Ser mutant to MIC for Escherichia coli HB101; format: functional
DNA gyrase = DNA gyrase (Escherichia coli, UniProt P0AES4+P0AES6); assay: Inhibition of Escherichia coli DNA gyrase assessed as inhibition of pUC19 supercoiling after 30 mins by agarose gel electrophoresis; format: protein-complex assay
[39] = molecular target: DNA gyrase (Escherichia coli) (UniProt P0AES6+P0AES4); assay: Inhibition of Escherichia coli DNA gyrase ATPase activity up to 100 uM using DNA as substrate after 60 mins; format: protein-complex assay

SMILES: Cc1ccc(F)cc1S(=O)(=O)N[C@@H]1CCN(Cc2ccc(-c3ccccc3)cc2)C1
- Ratio [1]: > 1600

SMILES: CO[C@@H]1[C@@H](OC(N)=O)[C@@H](O)[C@H](Oc2ccc3c(O)c(NC(=O)c4ccc(O)c(CC=C(C)C)c4)c(=O)oc3c2C)OC1(C)C [NOVOBIOCIN]
- MIC (Escherichia coli [2]): 0.8 µg/mL (≈ 1.31 µM)
- MIC (Escherichia coli [3]): > 100 µg/mL
- MIC (Escherichia coli [4]): 3.2 µg/mL
- MIC (Escherichia coli [5]): 102 µg/mL
- MIC (Escherichia coli [6]): 6.4 µg/mL
- MIC (Escherichia coli [7]): 12.8 µg/mL
- MIC (Escherichia coli [8]): 0.4 µg/mL
- MIC (Escherichia coli [9]): 0.4 µg/mL (≈ 0.653 µM)
- MIC (Escherichia coli [10]): 6.3 µg/mL
- MIC (Escherichia coli [11]): 3.2 µg/mL
- Activity (Escherichia coli [12]): inactive

SMILES: Cc1ccc(C#N)cc1S(=O)(=O)N[C@@H]1CCN(Cc2ccc(-c3ccccc3)cc2)C1
- MIC (Escherichia coli [13]): 8 µg/mL (≈ 18.5 µM)
- MIC (Escherichia coli [2]): 0.1 µg/mL (≈ 0.232 µM)
- MIC (Escherichia coli [14]): 8 µg/mL (≈ 18.5 µM)
- MIC (Escherichia coli [15]): 0.5 µg/mL (≈ 1.16 µM)
- MIC (Escherichia coli [16]): > 16 µg/mL
- MIC (Acinetobacter baumannii): > 16 µg/mL
- MIC (Edwardsiella tarda): 8 µg/mL (≈ 18.5 µM)
- MIC (Klebsiella aerogenes): > 16 µg/mL
- MIC (Klebsiella pneumoniae): > 16 µg/mL
- MIC (Morganella morganii): > 16 µg/mL
- MIC (Pseudomonas aeruginosa): > 16 µg/mL
- MIC (Salmonella typhimurium): 2 µg/mL (≈ 4.63 µM)
- MIC (Shigella flexneri): 4 µg/mL (≈ 9.27 µM)
- MIC (Bacillus subtilis): > 16 µg/mL
- MIC (Bacillus cereus): > 16 µg/mL
- MIC (Enterococcus faecalis): > 16 µg/mL
- MIC (Enterococcus faecium): > 16 µg/mL
- MIC (Staphylococcus aureus): > 16 µg/mL
- MIC [17]: > 16 µg/mL
- MIC [18]: > 16 µg/mL
- MIC (Streptococcus agalactiae): > 16 µg/mL
- MIC (Streptococcus pyogenes): > 16 µg/mL
- MIC (Escherichia coli [19]): 5.4 µg/mL (≈ 12.5 µM)
- MIC (Escherichia coli [20]): 22 µg/mL (≈ 51 µM)
- MIC (Escherichia coli [21]): 2.7 µg/mL (≈ 6.26 µM)
- MIC (Escherichia coli [22]): 22 µg/mL (≈ 51 µM)
- MIC (Escherichia coli [23]): 1.3 µg/mL (≈ 3.01 µM)
- MIC (Escherichia coli [24]): 0.2 µg/mL (≈ 0.463 µM)
- MIC (Escherichia coli [25]): 0.1 µg/mL (≈ 0.232 µM)
- MIC (Escherichia coli [26]): 0.4 µg/mL (≈ 0.927 µM)
- MIC (Escherichia coli [3]): 1 µg/mL (≈ 2.32 µM)
- MIC (Escherichia coli [7]): 0.2 µg/mL
- Ratio [1]: 80
- Ratio (Escherichia coli [27]): 10 - 100
- Ratio (Escherichia coli [28]): 10 - 100
- Ratio (Escherichia coli [29]): 10 - 100
- Ratio (Escherichia coli [30]): 10 - 100
- Ratio (Escherichia coli [31]): 10 - 100
- Ratio (Escherichia coli [32]): 2 - 4
- Ratio (Escherichia coli [33]): 2 - 4
- Ratio (Escherichia coli [34]): 2 - 4
- Ratio (Escherichia coli [35]): 2 - 4
- Ratio (Escherichia coli [36]): 2 - 4
- Ratio (Escherichia coli [37]): 2 - 4
- Ratio (Escherichia coli [38]): 2 - 4
- pIC50 (DNA gyrase): 7.33
- inhibition [39]: inactive
